Results on 21 molecules are retold here after patent US9822124B2, “Bicyclic heteroaromatic carboxamide compounds useful as Pim kinase inhibitors” (Incyte Corporation, priority 2014, dated 2017).

Holding throughout (format): biochemical
For one test, the target named is Pim-1 (Homo sapiens (Human), UniProt P11309). As to the kind of experiment: Pim-1 kinase assay (AlphaScreen, Biotin-labeled BAD peptide substrate). The conditions noted are these: 1 mM ATP; read-out: Pim1 IC50. The method, then:
(§1) Pim-1 and Pim-3 kinase assays—20 μL reactions were run in white 384 well polystyrene plates dotted with 0.8 μL compound/DMSO in the assay buffer (50 mM Tris, pH 7.5, 0.01% Tween-20, 5 mM MgCl2, 0.01% BSA, 5 mM DTT), containing 0.05 μM Biotin-labeled BAD peptide substrate (AnaSpec 62269), 1 mM ATP, and […] (Pim-1, Invitrogen PV3503) or […] (Pim-3, Millipore 14-738) enzyme for 1 h at 25° C. Reactions were stopped by addition of 10 μL STOP Buffer (150 mM Tris, pH=7.5, 150 mM NaCl, 75 mM EDTA, 0.01% Tween-20, 0.3% BSA) supplemented with Phospho-Bad (Ser112) Antibody (Cell Signaling 9291) diluted 666-fold, and Streptavidin donor beads (PerkinElmer 6760002) along with Protein-A acceptor beads (PerkinElmer 6760137) at 15 μg/mL each. Supplementation of the STOP buffer with beads and stopping the reactions were done under reduced light. Prior to the stopping reactions STOP buffer with beads was preincubated for 1 h in the dark at room temperature. After stopping the reactions, plates were incubated for 1 h in the dark at room temperature before reading on a PHERAstar FS plate reader (BMG Labtech) under reduced light.
Background: Alpha assays give light when donor and acceptor beads are brought close together.

For the next test, the target named is Pim-2 (Homo sapiens (Human), UniProt Q9P1W9). Kind of test: Pim-2 kinase assay (TR-FRET, Fluorescein-labeled CREBtide peptide substrate). The conditions noted are these: 1 mM ATP; read-out: Pim2 IC50. As to the method:
Pim-2 kinase assay—20 μL reactions were run in white 384 well polystyrene plates dotted with 0.8 μL compound/DMSO in the assay buffer (50 mM Tris, pH 7.5, 0.01% Tween-20, 5 mM MgCl2, 0.01% BSA, 5 mM DTT), containing 0.05 μM Fluorescein-labeled CREBtide peptide substrate (Invitrogen PV3508), 1 mM ATP, and 1 nM enzyme (Invitrogen PV3649) for 2 h at 25° C. Reactions were stopped by addition of 10 μL TR-FRET Dilution Buffer (Invitrogen PV3574) with 30 mM EDTA and 1.5 nM LanthaScreen Tb-CREB pSer133 antibody (Invitrogen PV3566). After 30 min. incubation at room temperature, plates were read on a PHERAstar FS plate reader (BMG Labtech).

The next test deals with Pim-3 (Homo sapiens (Human), UniProt Q86V86). As to the kind of experiment: Pim-3 kinase assay (AlphaScreen, Biotin-labeled BAD peptide substrate). The settings on record: 1 mM ATP; read-out: Pim3 IC50. The method, then:
as §1

Sequence of Pim-1 (P11309 whole entry): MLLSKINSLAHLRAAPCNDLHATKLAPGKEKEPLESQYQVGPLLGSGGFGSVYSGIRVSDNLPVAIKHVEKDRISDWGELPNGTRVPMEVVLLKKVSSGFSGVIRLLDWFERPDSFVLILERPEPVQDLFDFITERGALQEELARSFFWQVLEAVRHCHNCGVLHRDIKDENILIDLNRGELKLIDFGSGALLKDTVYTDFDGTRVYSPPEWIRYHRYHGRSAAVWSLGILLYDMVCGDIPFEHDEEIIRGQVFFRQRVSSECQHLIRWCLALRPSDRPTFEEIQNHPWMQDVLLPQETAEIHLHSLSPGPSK
Sequence of Pim-2 (Q9P1W9 whole entry): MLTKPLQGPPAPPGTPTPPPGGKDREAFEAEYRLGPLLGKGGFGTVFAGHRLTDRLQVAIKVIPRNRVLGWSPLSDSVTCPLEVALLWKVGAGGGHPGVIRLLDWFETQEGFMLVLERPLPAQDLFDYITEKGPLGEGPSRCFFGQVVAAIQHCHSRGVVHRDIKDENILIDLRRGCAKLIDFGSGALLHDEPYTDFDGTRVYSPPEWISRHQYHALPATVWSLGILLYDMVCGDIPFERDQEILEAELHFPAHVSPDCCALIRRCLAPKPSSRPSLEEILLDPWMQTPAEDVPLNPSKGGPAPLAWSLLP

In the case of `C[C@H]1CN(c2ccncc2NC(=O)c2ccc3occ(C4CC4)c3n2)C[C@@H](N)[C@@H]1O` [Example 34, N-(4-((3R,4R,5S)-3-Amino-4-hydroxy-5-methylpiperidin-1-yl)pyridin-3-yl)-3-cyclopropylfuro[3,2-b]pyridine-5-carboxamide], the values for the IC50 on Pim-1, on Pim-2 and on Pim-3 were at most 0.01 µM, at most 0.1 µM and at most 0.01 µM, respectively.
Take `C[C@@H]1C[C@H](N)CN(c2ccncc2NC(=O)c2ccc3occ(C4CC4)c3n2)C1` [Example 35, N-(4-((3S,5R)-3-Amino-5-methylpiperidin-1-yl)pyridin-3-yl)-3-cyclopropylfuro[3,2-b]pyridine-5-carboxamide]: the IC50 (commonly the concentration that inhibits the measured activity by half) at Pim-1 is at most 0.01 µM; on Pim-2, at most 0.1 µM; on Pim-3, at most 0.01 µM.
For `CC(C)c1coc2ccc(C(=O)Nc3cnccc3N3CCC[C@H](N)C3)nc12` [Example 36, (S)-N-(4-(3-Aminopiperidin-1-yl)pyridin-3-yl)-3-isopropylfuro[3,2-b]pyridine-5-carboxamide], the IC50 at Pim-1 was at most 0.01 µM; on Pim-2 it was at most 0.1 µM; at Pim-3, at most 0.01 µM.
Take `N[C@H]1CCCN(c2ccncc2NC(=O)c2ccc3occ(-c4c(F)cccc4F)c3n2)C1` [Example 37, (S)-N-(4-(3-Aminopiperidin-1-yl)pyridin-3-yl)-3-(2,6-difluorophenyl)furo[3,2-b]pyridine-5-carboxamide]: the values for the half-inhibitory concentration (IC50) at Pim-1, on Pim-2 and on Pim-3 were at most 0.01 µM, at most 0.1 µM and at most 0.01 µM, respectively.
Take `CCCc1cc2nc(C(=O)Nc3cnccc3N3C[C@@H](N)[C@H](O)[C@@H](C)C3)ccc2s1` [Example 38, N-(4-((3R,4R,5S)-3-Amino-4-hydroxy-5-methylpiperidin-1-yl)pyridin-3-yl)-2-propylthieno[3,2-b]pyridine-5-carboxamide]: the IC50 at Pim-1 is at most 0.01 µM; on Pim-2 it was 0.1 to 1 µM; on Pim-3 it was at most 0.01 µM.
Regarding `CC(C)c1cc2nc(C(=O)Nc3cnccc3N3C[C@@H](N)[C@H](O)[C@@H](C)C3)ccc2s1` [Example 39, N-(4-((3R,4R,5S)-3-Amino-4-hydroxy-5-methylpiperidin-1-yl)pyridin-3-yl)-2-isopropylthieno[3,2-b]pyridine-5-carboxamide], the IC50 is at most 0.01 µM at Pim-1, at most 0.1 µM on Pim-2 and at most 0.01 µM on Pim-3.
Turning to `C[C@H]1CN(c2ccncc2NC(=O)c2ccc3sc(-c4c(F)cccc4F)cc3n2)C[C@@H](N)[C@@H]1O` [Example 40, N-(4-((3R,4R,5S)-3-Amino-4-hydroxy-5-methylpiperidin-1-yl)pyridin-3-yl)-2-(2,6-difluorophenyl)thieno[3,2-b]pyridine-5-carboxamide], the IC50 is at most 0.01 µM on Pim-1, 0.1 to 1 µM at Pim-2 and at most 0.01 µM on Pim-3.
On to `C[C@H]1CN(c2ccncc2NC(=O)c2ccc3sc(-c4ccccc4F)cc3n2)C[C@@H](N)[C@@H]1O` [Example 41, N-(4-((3R,4R,5S)-3-Amino-4-hydroxy-5-methylpiperidin-1-yl)pyridin-3-yl)-2-(2-fluorophenyl)thieno[3,2-b]pyridine-5-carboxamide], for which the IC50 at Pim-1 is at most 0.01 µM; on Pim-2 it was 0.1 to 1 µM; at Pim-3, at most 0.01 µM.
With `C[C@H]1CN(c2ccncc2NC(=O)c2ccc3sc(Cc4ccccc4)cc3n2)C[C@@H](N)[C@@H]1O` [Example 42, N-(4-((3R,4R,5S)-3-Amino-4-hydroxy-5-methylpiperidin-1-yl)pyridin-3-yl)-2-benzylthieno[3,2-b]pyridine-5-carboxamide], the IC50 on Pim-1 is at most 0.01 µM; on Pim-2 it was 0.1 to 1 µM; on Pim-3, at most 0.01 µM.
`COc1ccc(-c2cc3nc(C(=O)Nc4cnccc4N4C[C@@H](N)[C@H](O)[C@@H](C)C4)ccc3s2)cn1` [Example 43, N-(4-((3R,4R,5S)-3-Amino-4-hydroxy-5-methylpiperidin-1-yl)pyridin-3-yl)-2-(6-methoxypyridin-3-yl)thieno[3,2-b]pyridine-5-carboxamide]: the values for the 50% inhibitory concentration (IC50) at Pim-1, on Pim-2 and at Pim-3 were at most 0.01 µM, 0.1 to 1 µM and at most 0.01 µM, respectively.
Take `C[C@H]1CN(c2ccncc2NC(=O)c2ccc3sc(-c4ccc(N5CCOCC5)nc4)cc3n2)C[C@@H](N)[C@@H]1O` [Example 44, N-(4-((3R,4R,5S)-3-Amino-4-hydroxy-5-methylpiperidin-1-yl)pyridin-3-yl)-2-(6-morpholinopyridin-3-yl)thieno[3,2-b]pyridine-5-carb oxamide]: the results for the IC50 at Pim-1, at Pim-2 and at Pim-3 were at most 0.01 µM, 0.1 to 1 µM and at most 0.01 µM, respectively.
Consider `COc1cc(F)c(-c2cc3nc(C(=O)Nc4cnccc4N4C[C@@H](N)[C@H](O)[C@@H](C)C4)ccc3s2)c(F)c1` [Example 45, N-(4-((3R,4R,5S)-3-Amino-4-hydroxy-5-methylpiperidin-1-yl)pyridin-3-yl)-2-(2,6-difluoro-4-methoxyphenyl)thieno[3,2-b]pyridine-5-carboxamide], for which the half-inhibitory concentration (IC50) at Pim-1 was at most 0.01 µM; on Pim-2, 0.1 to 1 µM; at Pim-3, at most 0.01 µM.
Regarding `C[C@H]1CN(c2ccncc2NC(=O)c2ccc3sc(-c4ccccc4)cc3n2)C[C@@H](N)[C@@H]1O` [Example 46, N-(4-((3R,4R,5S)-3-Amino-4-hydroxy-5-methylpiperidin-1-yl)pyridin-3-yl)-2-phenylthieno[3,2-b]pyridine-5-carboxamide], the half-inhibitory concentration (IC50) at Pim-1 was at most 0.01 µM; on Pim-2 it was 0.1 to 1 µM; at Pim-3, at most 0.01 µM.
Turning to `C[C@H]1CN(c2ccncc2NC(=O)c2ccc3sc(C4CC4)cc3n2)C[C@@H](N)[C@@H]1O` [Example 47, N-(4-((3R,4R,5S)-3-Amino-4-hydroxy-5-methylpiperidin-1-yl)pyridin-3-yl)-2-cyclopropylthieno[3,2-b]pyridine-5-carboxamide], the half-inhibitory concentration (IC50) at Pim-1 is at most 0.01 µM; on Pim-2, at most 0.1 µM; at Pim-3, at most 0.01 µM.
As for `C[C@H]1CN(c2ccncc2NC(=O)c2ccc3sc(-c4cnn(C)c4)cc3n2)C[C@@H](N)[C@@H]1O` [Example 48, N-(4-((3R,4R,5S)-3-Amino-4-hydroxy-5-methylpiperidin-1-yl)pyridin-3-yl)-2-(1-methyl-1H-pyrazol-4-yl)thieno[3,2-b]pyridine-5-carboxamide], the IC50 was at most 0.01 µM at Pim-1, at most 0.1 µM on Pim-2 and at most 0.01 µM on Pim-3.
Take `Cc1cc2nc(C(=O)Nc3cnccc3N3C[C@@H](N)[C@H](O)[C@@H](C)C3)ccc2s1` [Example 49, N-(4-((3R,4R,5S)-3-Amino-4-hydroxy-5-methylpiperidin-1-yl)pyridin-3-yl)-2-methylthieno[3,2-b]pyridine-5-carboxamide]: the IC50 on Pim-1 was at most 0.01 µM; at Pim-2 it was 0.1 to 1 µM; at Pim-3, at most 0.01 µM.
As to `CCCc1cc2nc(C(=O)Nc3cnccc3N3C[C@H](C)C[C@H](N)C3)ccc2s1` [Example 50, N-(4-((3S,5R)-3-Amino-5-methylpiperidin-1-yl)pyridin-3-yl)-2-propylthieno[3,2-b]pyridine-5-carboxamide], the 50% inhibitory concentration (IC50) is at most 0.01 µM at Pim-1, at most 0.1 µM at Pim-2 and at most 0.01 µM at Pim-3.
For `CC(C)c1cc2nc(C(=O)Nc3cnccc3N3C[C@H](C)C[C@H](N)C3)ccc2s1` [Example 51, N-(4-((3S,5R)-3-Amino-5-methylpiperidin-1-yl)pyridin-3-yl)-2-isopropylthieno[3,2-b]pyridine-5-carboxamide], the IC50 at Pim-1 is at most 0.01 µM; at Pim-2 it was at most 0.1 µM; on Pim-3, at most 0.01 µM.
Regarding `C[C@@H]1C[C@H](N)CN(c2ccncc2NC(=O)c2ccc3sc(-c4c(F)cccc4F)cc3n2)C1` [Example 52, N-(4-((3S,5R)-3-Amino-5-methylpiperidin-1-yl)pyridin-3-yl)-2-(2,6-difluorophenyl)thieno[3,2-b]pyridine-5-carboxamide], the half-maximal inhibitory concentration (IC50) at Pim-1 was at most 0.01 µM; on Pim-2, 0.1 to 1 µM; on Pim-3, at most 0.01 µM.
Consider `C[C@@H]1C[C@H](N)CN(c2ccncc2NC(=O)c2ccc3sc(-c4ccccc4F)cc3n2)C1` [Example 53, N-(4-((3S,5R)-3-Amino-5-methylpiperidin-1-yl)pyridin-3-yl)-2-(2-fluorophenyl)thieno[3,2-b]pyridine-5-carboxamide], for which the 50% inhibitory concentration (IC50) is at most 0.01 µM on Pim-1, 0.1 to 1 µM on Pim-2 and at most 0.01 µM at Pim-3.
For the molecule `C[C@@H]1C[C@H](N)CN(c2ccncc2NC(=O)c2ccc3sc(Cc4ccccc4)cc3n2)C1` [Example 54, N-(4-((3S,5R)-3-Amino-5-methylpiperidin-1-yl)pyridin-3-yl)-2-benzylthieno[3,2-b]pyridine-5-carboxamide], the IC50 at Pim-1 was at most 0.01 µM; on Pim-2, 0.1 to 1 µM; at Pim-3 it was at most 0.01 µM.
